# Earlier results as cited in patent publication US11679093B2, “2-naphthimidamides, analogues thereof, and methods of treatment using same” (priority 2018, dated 2023).
# Tested on: Influenza A virus (IAV)
# Details: fully differentiated mucociliated bronchiolar epithelium isolated from multiple human donors
structure (smiles),measurement,value
"N=C(N)Nc1ccc(C(=O)Oc2ccc3cc(C(=N)N)ccc3c2)cc1 [Nafamostat, 6-carbamimidoylnaphthalen-2-yl 4-guanidinobenzoate]",antiviral activity,exhibit antiviral activity
